The numbers were not newly measured in paper PMC9747611 (Hypertension Research, 2022), which cites them from elsewhere.

This series concerns aldosterone synthase. The settings on record: cited from earlier work.

Regarding `N#Cc1ccc([C@H]2CCc3cncn32)c(F)c1` [LCI699], the “increase in 11-deoxycorticosterone levels” value is “up to 10 fold”.
